Patent US20090170914A1, “Cermide Kinase Modulation” (priority 2006, published 2009)

melting point: 160 to 167 °C
SMILES: CCCCCCCCCCCCCC(=O)Nc1ccc2nc(NC(=O)c3ccccc3)sc2c1
